# Measurements from patent US20260217983A1, “SULFONIUM SALT PHOTOINITIATORS AND METHODS OF LED CURING A COMPOSITION WITH SAID SULFONIUM SALT PHOTOINITIATORS” (ARKEMA FRANCE, priority 2022, published 2026).
# “Also recorded” adds a separate entry of the source.
# Columns and labels:
# [1] = UV Vis spectra measurement; type: physicochemical; conditions: 10 ppm in acetonitrile
# From the text: UV-Vis spectrum of each sample was taken with a Shimadzu UV1800 spectrophotometer using a 1.0 cm path of cuvette quartz cell in accordance with ASTM E169-04, and scanning the spectrum over the wavelength range of 450 to 200 nm.
# [2] = FTIR-ATR cure test of cationic formulations (epoxide, oxetane conversion, 1100 cm^-1 peak growth); conditions: 405 nm, cationic systems
# Protocol: Matrixes: In a 1000 mL of metal can, formulation matrix was charged according to the percentage in Table 12. The 1000-1005 g mixture of each matrix sample was prepared and mixed by mechanical mixer for about 1 hour around 60° C. until the solution became clear. Formulations: In a white max 50 jar from FlackTek Inc., photoinitiator and propylene carbonate were loaded at first, mixed by hand with stainless steel spatula, placed in 60° C. oven for about 1 h, mixed again until it became clear. Then, formulation matrix was charged according to the percentage in one of Table 13 to 21. The […]-52.60 g mixture of each sample was prepared and mixed for 3 minutes at 3000 RPM in Speed Mixer from FleackTec Inc. Then, all jars were placed in 60° C. oven for about 2 h, taken out and immediately mixed for another 2 minutes until the solution became clear.
# A Fourier Transform Infrared (FTIR) with an Attenuated Total Reflection (ATR) setup was used. All polymerization rate measurements were performed using Nicolet iS50 FT-IR Spectrometer from Thermo Scientific, equipped with a standard DLaTGS detector. A lamp holder for the ART platform of FTIR unit can be customized and printed from Arkema N3xtDimention® engineered resin N3D-TOUGH784 in order to ensure precisely fit of a 365 nm lamp Accucure ULM-2-365 or a 405 nm lamp Accucure ULM-2-405 from Digital Light Labs. On the bottom of this lamp holder, a dry air channel is built in to allow air uniformly blowing over sample surface, the gas flow rate can be controlled over a rotameter. The LED light was manually triggered by Ultraviolet illumination & Measurement System. LED light exposure can be programed by AccuCure software. For measurement, 25 μL of liquid sample was placed in the center of an ATR crystal. 3 mil of thin film was prepared by a customized coating applicator (3 mil WFM, G1046 from BYK). The LED lamp with holder was place on the top of ART platform. Then FTIR scan was initiated to collect liquid IR spectrum at first. Each IR spectrum of a specific exposure time at 10 mW/cm^2 of LED light were collected. Measurements of acrylate conversion were taken at the peak height under the reference peak around 1727 cm^−1; the acrylate peak of SR833S at approximately 1407 cm^−1, the epoxide peak of UviCure S105 at approximately 790 cm^−1, and the oxetane peak of UViCure S130 at approximately 970 cm^−1 were also measured. Since the ring opening of both epoxide and oxetane generated C—O—C bond, the growth of C—O—C IR peak height at ~1100 cm^−1 was monitored as well. The resulting of peak 1100 cm^−1 growth rate could be calculated to assess total cationic cure speed. Peak heights were determined using the same baseline where a baseline is chosen to be the two lowest points between 600 cm^−1 and 1800 cm^−1. The peak height under the peak and above the baseline was then determined. The integration limits for liquid and the cured sample are not identical but are similar, especially for the reference peak.
# The ratios of the acrylate peak height, epoxide peak height, ring opening peak height from both epoxide and oxetane to the reference peak height were determined for both the liquid and the cured samples. Degree of cure or conversion or peak growth rate, expressed as percentage reacted acrylate or epoxide or ring opening of both epoxide and oxetane, was calculated from the equation below: […]
# Where Rliq is the peak height ratio of the liquid sample and Rc is the peak height ratio of the LED cured sample. The resulting acrylate and epoxide conversions or C—O—C growth rates were collected and listed in Tables 13 to 21, plotted in FIG. 1 to 8 and FIG. 10.
# [3] = Transmittance at 0.01% w/v in propylene carbonate; type: physicochemical
# Protocol: The samples were prepared at 0.01% w/v in propylene carbonate.
# [4] = Solubility in propylene carbonate at ambient temperature; type: physicochemical; conditions: 20-25° C.
# Protocol: Solubility of selected sulfonium salts in propylene carbonate at ambient temperature (20-25° C.) was determined.
# [5] = 3D printability in hybrid system on 405 nm DLP printers; conditions: hybrid formulations of Table 23
# [6] = Belt curing performance (thumb-twist depth cure) in hybrid acrylate/epoxy resin; conditions: 24 μm film, under air, PI 2 wt %
# Protocol: (§1) The photoinitiators were dissolved either in neat UViCure S105E resin or a hybrid acrylate/epoxy resin (prepared by mixing 60 wt parts UViCure S105E, 15 wt parts UViCure S130 and 25 wt parts SR492; all product are available from Sartomer). Formulations were prepared by combining all materials in the given proportions and then stirring at 30-40° C. until the samples were fully homogeneous; the formulations were then allowed to cool to room temperature. For all experiments, the formulations were cured on Leneta Form 3N-31 gloss finish paper at 6 μm and 24 μm film thickness using a belt-cure instrument; the films were prepared using a K-bar. All films were then cured under an LED lamp at a given belt speed. ‘Depth cure’ for each formulation was assessed using the ‘thumb-twist’ test (where no visible mark is made when a thumb is pressed down firmly onto the coating with a twisting motion), and from the belt speed; the calculated cure speed (in m/min) is given.
# [7] = Belt curing performance (thumb-twist depth cure) in UViCure S105E resin; conditions: 24 μm film, under air, PI 2 wt %
# Protocol: as §1
# [8] = LED 365 nm, 100% intensity (=70.1 mJ/cm^2), belt speed 40 m/min
structure (smiles),measurement,setting,value
"CC(C)(C)c1ccc([I+]c2ccc(C(C)(C)C)cc2)cc1 [Speedcure 938, Bis (4-tert-butylphenyl) iodonium hexafluorophosphate, reference compound]",UV absorption over 310 nm wavelength,[1],did not have any absorption at all
"COC(OC)(C(=O)c1ccccc1)c1ccccc1 [Speedcure BKL, 2,2-dimethoxy-1,2-diphenylethan-1-one, reference compound]",effect of radical photoinitiator on cationic photopolymerization,[2],Neither radical photoinitiator BKL nor TPO-L could promote cationic photopolymerization
"CCOP(=O)(C(=O)c1c(C)cc(C)cc1C)c1ccccc1 (centres unmarked) [Speedcure TPO-L, Ethyl(2,4,6-trimethylbenzoyl)phenyl phosphinate, reference compound]",effect of radical photoinitiator on cationic photopolymerization,[2],Neither radical photoinitiator BKL nor TPO-L could promote cationic photopolymerization; also recorded: slowed down the most
"CC(C)c1ccc2c(c1)c(=O)c1ccccc1[s+]2-c1ccc(-c2ccccc2)cc1 (centres unmarked) [Omnicat 550, 10-[1,1′-Biphenyl]-4-yl-2-(1-methylethyl)-9-oxo-9H-thioxanthenium hexafluorophosphate, reference compound]",% Transmittance at 355 nm,[3],86.8%
same,% Transmittance at 420 nm,[3],99.1%
same,Solubility in propylene carbonate,[4],25 wt %
same,printability on 405 nm DLP printers,[5],not printable even with over exposure time
same,Cure speed in hybrid acrylate/epoxy resin,[6]; [8],5.7 m/min
same,Cure speed in hybrid acrylate/epoxy resin,"[6]; LED 395 nm, 80 m/min, 50% intensity (=36.9 mJ/cm^2)",10.5 m/min
same,Cure speed in UViCure S105E resin,[7]; [8],5.0 m/min
same,Cure speed in UViCure S105E resin,"[7]; LED 395 nm, 40 m/min, 100% intensity (=164.5 mJ/cm^2)",8.0 m/min
